From article PMC6150325 (Molecules : A Journal of Synthetic Chemistry and Natural …, 2017)
Several values for one entry are separate records, joined by “and”; a condition that tells them apart may be missing. Equal entries are not always repeated. Where two headings read alike, the source gives them in different places.

Key:
[1] = target: T1, bacterial Vibrio cholerae neuraminidase (VCNA) (Vibrio cholerae serotype O1, UniProt P0C6E9); experiment: biochemical; conditions: mean ± SD, n = 3–6
T1 construct: purchased Hoffmann La Roche, Basel, Switzerland
T1 sequence (P0C6E9 25-781): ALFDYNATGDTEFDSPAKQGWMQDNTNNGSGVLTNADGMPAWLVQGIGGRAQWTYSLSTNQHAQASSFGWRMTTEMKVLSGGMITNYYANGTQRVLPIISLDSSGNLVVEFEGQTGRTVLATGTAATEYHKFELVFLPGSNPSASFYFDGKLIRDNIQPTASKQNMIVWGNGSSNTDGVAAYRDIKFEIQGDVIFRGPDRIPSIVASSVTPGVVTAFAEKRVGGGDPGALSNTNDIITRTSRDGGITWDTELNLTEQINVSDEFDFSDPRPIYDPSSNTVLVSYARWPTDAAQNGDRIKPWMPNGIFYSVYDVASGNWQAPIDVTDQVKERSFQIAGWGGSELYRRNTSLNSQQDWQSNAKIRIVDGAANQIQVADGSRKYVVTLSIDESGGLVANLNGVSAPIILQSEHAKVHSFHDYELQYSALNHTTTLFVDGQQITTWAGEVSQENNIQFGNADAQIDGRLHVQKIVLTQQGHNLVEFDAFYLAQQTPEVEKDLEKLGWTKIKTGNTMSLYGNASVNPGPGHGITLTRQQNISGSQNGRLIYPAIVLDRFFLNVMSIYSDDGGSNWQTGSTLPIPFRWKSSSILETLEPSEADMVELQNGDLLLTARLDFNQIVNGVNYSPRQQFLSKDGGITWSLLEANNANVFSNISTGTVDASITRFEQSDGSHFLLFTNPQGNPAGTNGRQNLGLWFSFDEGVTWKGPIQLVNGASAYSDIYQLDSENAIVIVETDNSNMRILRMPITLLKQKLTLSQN

[2] = target: viral influenza A/California/04/2009 (H1N1) neuraminidase (H1N1-NA) (Influenza A virus (A/California/04/2009(H1N1)), UniProt C3W5S3); experiment: biochemical; assay type: biochemical
[3] = target: Streptococcus pneumoniae NA NanA; conditions: cited from earlier work
Ruminococcus gnavus NA = conditions: cited from earlier work
bacterial VCNA = target: T2, bacterial VCNA (Vibrio cholerae serotype O1, UniProt P0C6E9); experiment: biochemical
T2 construct: purchased Hoffmann La Roche, Basel, Switzerland
T2 sequence (P0C6E9 25-781): as above
Description: The median–effect concentration (Dm, a parameter analogous to the IC50 value indicating potency), the slope of the concentration–effect relationship (m, the dynamic order or the shape of dose–effect curve), and the linear regression correlation coefficient (r, a measure of data quality) were determined from the median–effect plots.
The concentration–efficiency curves of the test samples were transformed into the double-logarithmic mean action diagram (shape (m), intercepts and regression coefficients were used to determine the median effect dose Dm). Dm= 10^−(b/m)
Fraction affected (fa) and fraction unaffected (fu) by the concentration D were calculated by the median effect equation [27]: fa/fu= (D/Dm)^m
Dm is the concentration required to produce the median effect.

SMILES	IC50 [1]	IC50 ([2]; IC50 (Viral))	further results
O=C1O[C@H]2[C@@H]3OC(=O)c4cc(O)c(O)c(O)c4-c4c(cc(O)c(O)c4O)C(=O)OC[C@H]2O[C@@H](OC(=O)c2cc(O)c(O)c(O)c2)[C@@H]3OC(=O)c2cc(O)c(O)c3c2[C@@H]2C1=CC(=O)[C@](O)(O3)C2(O)O [geraniin]	134 µM and 135 µM		
Oc1cc(O)c2c(c1)O[C@H](c1cc(O)c(O)c(O)c1)[C@H](O)C2 [epigallocatechin]	1950 µM and 1960 µM	1740 µM	
O=C1O[C@H]2[C@H](OC(=O)c3cc(O)c(O)c(O)c3)[C@@H](OC(=O)c3cc(O)c(O)c4c3[C@@H]3C1=CC(=O)[C@](O)(O4)C3(O)O)[C@@H]1OC(=O)c3cc(O)c(O)c(O)c3-c3c(cc(O)c(O)c3O)C(=O)OC[C@H]2O1 [carpinusin]	138 µM		
Oc1cc(O)c2c(c1)O[C@H](c1ccc(O)c(O)c1)[C@H](O)C2 [epicatechin]	2310 µM	1050 µM	
O=C(OCC1OC(OC(=O)c2cc(O)c(O)c(O)c2)C(OC(=O)c2cc(O)c(O)c(O)c2)C(OC(=O)c2cc(O)c(O)c(O)c2)C1OC(=O)c1cc(O)c(O)c(O)c1C1c2c(O)c(O)c(O)c3c2C(=O)OC1C(C1OC(=O)c2cc(O)c(O)c(O)c2-c2c(cc(O)c(O)c2O)C(=O)OCC1O)OC(=O)c1cc(O)c(O)c(O)c1-3)c1cc(O)c(O)c(O)c1 (stereo not drawn) [paeonianin C]	14.6 µM and 15 µM		IC50 ([2]; read-out: IC50 (Viral)): 344 µM
O=C(O[C@@H]1Cc2c(O)cc(O)cc2O[C@@H]1c1ccc(O)c(O)c1)c1cc(O)c(O)c(O)c1 [epicatechin-3-O-gallate]	210 µM and 211 µM	1910 µM	
CCC(CC)O[C@@H]1C=C(C(=O)O)C[C@H](N)[C@H]1NC(C)=O [oseltamivir carboxylate]			Ki [3]: 1.77 µM; IC50 (Ruminococcus gnavus NA): 30 µM
O=C(O[C@H]1Cc2c(O)cc(O)cc2O[C@@H]1c1ccc(O)c(O)c1)c1cc(O)c(O)c(O)c1 [catechin-3-O-gallate]	54.3 µM and 55 µM	1950 µM	
O=C1OC[C@@H](O)[C@H]([C@@H]2OC(=O)c3cc(O)c(O)c(O)c3-c3c(O)c(O)c(O)c4c3C(=O)O[C@H]2[C@@H]4O)OC(=O)c2cc(O)c(O)c(O)c2-c2c1cc(O)c(O)c2O [casuariin]	236 µM		
O=C(O[C@H]1Cc2c(O)cc(O)cc2O[C@@H]1c1cc(O)c(O)c(O)c1)c1cc(O)c(O)c(O)c1 [gallocatechin-3-O-gallate]	24 µM and 25 µM	395 µM and 396 µM	
O=C1O[C@H]2[C@H](OC(=O)c3cc(O)c(O)c(O)c3)[C@@H](OC(=O)c3cc(O)c(O)c4c3[C@@H]3C1=CC(=O)C(O)(O)C3(O)O4)[C@H](OC(=O)c1cc(O)c(O)c(O)c1)O[C@@H]2COC(=O)c1cc(O)c(O)c(O)c1 (stereo partly drawn) [terchebin]	30.4 µM and 31 µM	102 µM and 101 µM	fold higher inhibitory potency compared to paeonianin C [2]: 3.5 fold
O=C1OCC2OC(=O)c3cc(O)c(O)c(O)c3-c3c(O)c(O)c(O)c4c3C(=O)OC(C2OC(=O)c2cc(O)c(O)c(O)c2-c2c1cc(O)c(O)c2O)C1OC(=O)c2c-4c(O)c(O)c(O)c2C1O (stereo not drawn) [vescalagin]	134 µM		
CC(=O)N[C@H]1[C@H]([C@H](O)[C@H](O)CO)OC(C(=O)O)=C[C@@H]1N=C(N)N [zanamivir, 2,4-dideoxy-2,3-didehydro-4-guanidino-N-acetylneuraminic acid]	51.2 µM and 52 µM		IC50 (bacterial VCNA): 51.2 µM; m (slope of the concentration–effect relationship) (bacterial VCNA; VCNA, median effect plot): 0.9; Ki [3]: 720 µM; IC50 (Ruminococcus gnavus NA): 11900 µM
Oc1cc(O)c2c(c1)O[C@H](c1cc(O)c(O)c(O)c1)[C@@H](O)C2 [gallocatechin]	1970 µM	1790 µM	
O=C(O[C@@H]1Cc2c(O)cc(O)cc2O[C@@H]1c1cc(O)c(O)c(O)c1)c1cc(O)c(O)c(O)c1 [epigallocatechin-3-O-gallate]	63.3 µM and 64 µM	1560 µM	
Oc1cc(O)c2c(c1)O[C@H](c1ccc(O)c(O)c1)[C@@H](O)C2 [catechin]	2050 µM	1070 µM and 1080 µM	
O=C1O[C@H]2[C@H](O)[C@@H](OC(=O)c3cc(O)c(O)c4c3[C@@H]3C1=CC(=O)[C@](O)(O4)C3(O)O)[C@@H]1OC(=O)c3cc(O)c(O)c(O)c3-c3c(cc(O)c(O)c3O)C(=O)OC[C@H]2O1 [granatin A]	155 µM and 158 µM		
